Laboratory results taken from ChEMBL document CHEMBL1201862, “PubChem BioAssay data set” (2004).
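Briefly, cells in 96-well plates were exposed to five compound concentrations for 48 h, and endpoints were estimated by linear interpolation. GI50: concentration for 50% inhibition of growth.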 Calls of active or inactive are those of the source. Cut-off read from the data, not from the text of the source: active = GI50 up to about 1.1 µM and inactive = higher.

Key:
Test in all cases: NCI tumour cell line growth inhibition, 48 h
HOP-18 = test system: HOP-18
DMS-273 = test system: DMS-273
DMS-114 = test system: DMS-114
XF498 = test system: XF498
DLD-1 = test system: DLD-1
M19-MEL = test system: M19-MEL
LXFL 529 = test system: LXFL 529
SNB-78 = test system: SNB-78
RXF 631 = test system: RXF 631

Measured: GI50

C/C(CC(=O)Nc1cccc(C)c1C)=N\NC(N)=S
inactive: HOP-18 > 100 µM | DMS-273 > 100 µM | DMS-114 41.7 µM | XF498 > 100 µM | DLD-1 > 100 µM | M19-MEL > 100 µM | LXFL 529 > 100 µM | SNB-78 > 100 µM | RXF 631 91.2 µM
